How the values were obtained:
[1] = target: T1, mouse melanopsin F94^2.61C/S188^ECL2T/S269^6.52A mutant (Mus musculus, UniProt Q9QXZ9, F126C/S221T/S310A); test: NanoBiT Gq dissociation assay; type: cell-based; details: 1.67 and 16.7 μM AA92593; COS-1 cells
T1 construct: expressed in transfected cells; host or cells: COS-1
Source text: As described above, we have assessed the inhibitory effect of AA92593 using the GsX GloSensor assay. To confirm whether an antagonistic effect could be observed in another experimental system, we used the NanoBiT G protein dissociation assay ([23]). In this assay, Gq activation (dissociation) is detected as a decrease in NanoLuc luminescence from the Lg-BiT fragment inserted with Gqα and the Sm-BiT fragment fused with Gβγ (see “Experimental procedures”) ([23], [24]). If an antagonistic effect is observed in the NanoBiT assay, the light-dependent decrease in luminescence (Gq dissociation) by melanopsin would be reduced in the presence of AA92593. […]
For GloSensor assay, opsins, GloSensor assay sensor (coded by pGlo-22F), and NanoBiT-tagged G proteins were transiently expressed in COS-1 cells (kindly provided from Dr David Farrens, Oregon Health and Science University) using PEI as described previously ([24], [52]). […] For GFP-fluorescence microscopy, a 35-mm cell culture dish (IWAKI) was transfected with 2 μg melanopsin-GFP plasmid and 8 μg PEI in 400 μl Opti-mem and 1.2 ml D-MEM. […]
The transfected COS-1 cells were incubated at 37 °C, 5% CO2 for 1 day, and the medium was aspirated, followed by the addition of 50 μl of HBSS containing 33.3, 3.33, or 0 μM AA92593, 0.5% DMSO, and 10 μM coelenterazine h (Wako). […] Luminescence was measured using GM-2000 or GM-3510 microplate reader (Promega). […]

[2] = system: mouse melanopsin S269^6.52A mutant; test: GsX GloSensor assay with Gsα/q11; type: cell-based; details: 16.7 μM AA92593, COS-1 cells

T1 sequence (Q9QXZ9 1-381 F126C/S221T/S310A): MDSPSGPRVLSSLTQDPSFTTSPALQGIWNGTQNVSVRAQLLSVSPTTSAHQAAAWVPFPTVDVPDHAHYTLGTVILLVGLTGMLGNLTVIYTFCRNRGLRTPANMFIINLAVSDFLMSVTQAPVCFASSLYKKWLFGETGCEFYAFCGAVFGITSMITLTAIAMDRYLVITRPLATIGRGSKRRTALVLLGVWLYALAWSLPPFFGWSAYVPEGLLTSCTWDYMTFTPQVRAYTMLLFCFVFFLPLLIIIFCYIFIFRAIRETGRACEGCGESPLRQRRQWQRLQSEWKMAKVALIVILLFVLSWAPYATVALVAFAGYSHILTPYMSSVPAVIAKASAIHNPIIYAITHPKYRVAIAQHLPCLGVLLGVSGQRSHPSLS

COc1ccc(S(=O)(=O)N2CCCCC2)cc1C [AA92593]
antagonistic effect on Gq activation compared to WT [1]: similarly reduced | reduction of the antagonistic effect of AA92593 vs WT [2]: ~25%

— article PMC12051620, “Molecular basis underlying the specificity of an antagonist AA92593 for mammalian melanopsins” (The Journal of Biological Chemistry, 2025)
